SMILES strings stand for the structures.

Experiment [1] relates to nitrite production in human cartilage explants induced with recombinant human IL-1β. Put plainly: Human cartilage explant assay. It counts as cell-based. The note with it: six concentrations of inhibitor, read-out: IC50 inhibition of nitrite production. How it is done: Bone pieces are rinsed twice with Dulbecco's Phosphate Buffered Saline (GibcoBRL) and once with Dulbecco's Modified Eagles Medium (GibcoBRL) and placed into a petri dish with phenol red free Minimum Essential Medium (MEM) (GibcoBRL). Cartilage was cut into small explants of approximately 15-45 mg in weight and one or two explants per well are placed into either 96 or 48 well culture plates with 200-500 μL of culture media per well. The culture media was either a custom modification of Minimum Essential Medium(Eagle) with Earle's salts (GibcoBRL) prepared without L-Arginine, without L-Glutamine and without phenol red or a custom modification of serumless Neuman and Tytell (GibcoBRL) medium prepared without L-arginine, without insulin, without ascorbic acid, without L-glutamine and without phenol red. […]
The day old supernatant is then discarded and replaced with fresh culture media containing recombinant human IL-1β and compound and incubated for another 20-24 hours. This supernatant is analyzed for nitrite with a fluorometric assay (Misko et al, Anal. Biochem., 214, 11-16, 1993). […] IC50 values (Table III) are determined from plotting the percent inhibition of nitrite production at six different concentrations of inhibitor.

The test system of experiment [2] is LPS-induced increase in plasma nitrite/nitrate levels. Put plainly: In vivo assay in endotoxin-treated rats. The note with it: Rattus norvegicus, po, administered orally 0.5-1 hours prior to LPS, plasma nitrite/nitrate 5 hours following LPS, read-out: ED50 for inhibition of the LPS-induced increase in plasma nitrite/nitrate levels. The procedure:
Compounds are administered orally 0.5-1 hours prior to LPS administration and plasma nitrite/nitrate levels are determined 5 hours following LPS administration.

In the case of `CC(=N)NC/C=C\CC[C@](C)(N)C(=O)O.Cl.Cl` [Example 14, (2S,5Z)-2-amino-2-methyl-7-[(1-iminoethyl)amino]-5-heptenoic acid, Dihydrochloride], the concentration for half-maximal inhibition (IC50) in experiment [1] worked out at 0.8 µM. Also, the ED50 in experiment [2] turned out to be 0.3 mg/kg.
In the case of `CC(=N)NC/C(F)=C\CC[C@](C)(N)C(=O)O.Cl.Cl` [Example 1, (2S,5E)-2-amino-2-methyl-6-fluoro-7-[(1-iminoethyl)amino]-5-heptenoic acid, Dihydrochloride], the IC50 in experiment [1] was found to be 0.4 µM. In addition, in experiment [2], the ED50 amounted to 0.4 mg/kg.
